According to article PMC9040635 (RSC Advances, 2021):

What was measured:
COX-1 = molecular target: T1, COX-1 (Ovis aries, UniProt P05979); experiment: COX-1 inhibitory assay; type: biochemical; settings: Cyclooxygenase-1; ΔGexp = −RT ln IC50, T = 300 K
T1 sequence (P05979 25-600): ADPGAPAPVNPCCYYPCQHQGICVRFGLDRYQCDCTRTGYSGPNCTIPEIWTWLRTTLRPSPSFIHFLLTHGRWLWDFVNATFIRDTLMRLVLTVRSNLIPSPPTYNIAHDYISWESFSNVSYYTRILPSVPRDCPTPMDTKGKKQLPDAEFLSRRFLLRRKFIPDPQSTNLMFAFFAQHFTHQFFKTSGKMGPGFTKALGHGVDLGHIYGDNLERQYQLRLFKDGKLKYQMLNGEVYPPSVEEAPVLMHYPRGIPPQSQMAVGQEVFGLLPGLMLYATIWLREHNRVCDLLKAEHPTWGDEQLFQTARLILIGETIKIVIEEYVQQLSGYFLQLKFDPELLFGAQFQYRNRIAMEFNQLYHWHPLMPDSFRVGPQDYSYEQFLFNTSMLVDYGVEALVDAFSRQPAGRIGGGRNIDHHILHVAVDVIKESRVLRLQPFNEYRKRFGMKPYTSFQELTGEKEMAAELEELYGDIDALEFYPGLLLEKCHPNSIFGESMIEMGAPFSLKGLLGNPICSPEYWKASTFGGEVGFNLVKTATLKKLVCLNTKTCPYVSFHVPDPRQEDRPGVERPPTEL

[1] = system: formalin-induced rat paw oedema; experiment: Formalin-induced hind rat paw oedema assay; type: in vivo; settings: low dose 10 mg kg^−1 b.w, intraperitoneal, mean ± SEM n = 5

SMILES	ΔGexp (experimental binding free energy) (COX-1) [kcal/mol]	percentage reduction of rat paw oedema ([1]; 1 h) [%]	percentage reduction of rat paw oedema ([1]; 2 h) [%]	percentage reduction of rat paw oedema ([1]; 4 h) [%]
COc1ccc2c(c1)c(CC(=O)O)c(C)n2C(=O)c1ccc(Cl)cc1 [Indomethacin]	-11.0	23.3 ± 2.2	31.0 ± 3.0	37.4 ± 2.8
Cc1ccc(-c2cc(C(F)(F)F)nn2-c2ccc(S(N)(=O)=O)cc2)cc1 [Celecoxib]		24.7 ± 2.2	31.4 ± 1.8	38.5 ± 1.7
